Test results as given in ChEMBL document CHEMBL1159284, “A Short Enantioselective Synthesis of a Biologically Active Compound from Persea americana” (J Nat Prod, 1995).

What was measured:
Mus musculus [1] = assay: Toxicity in lactating mouse assessed as widespread mammary gland necrosis at 200 mg/kg; type: organism-based; parameters: dose 200 mg/kg; conditions: in vivo
Mus musculus [2] = assay: Toxicity in lactating mouse assessed as widespread mammary gland necrosis at 50 to 100 mg/kg; type: organism-based; parameters: dose 50-100 mg/kg; conditions: in vivo

| Structure (SMILES) | Activity (Mus musculus [1]) | Activity (Mus musculus [2]) |
| --- | --- | --- |
| CCCCC/C=C\C/C=C\CCCCCCCC(=O)C[C@H](O)COC(C)=O | Not Active | – |
| CCCCC/C=C\C/C=C\CCCCCCCC(=O)C[C@@H](O)COC(C)=O | – | Active |
